Here are results for one sequence from paper PMC5295395, “Inhibition of PlexA1-mediated brain tumor growth and tumor-associated angiogenesis using a transmembrane domain targeting peptide” (Oncotarget, 2016).

The subject of one experiment is PlexA4-PlexA1 complex. As to the kind of experiment: co-immunoprecipitation of Plexin-A4 with PlexA1 in U373MG cells. Format: cell-based, human. The settings on record: 10^−7 M peptide 1 h. The protocol:
(§1) (C) Rac-1 activation assay in resting condition and after Sema3A-induced Rac-1 activation in U373 MG cells. (D) Western blot analysis of phosphorylated Akt, total Akt and tubulin in U373MG cells treated with the vehicle (LDS 72 μM), Sema3A (100 ng/ml) or Sema3A + MTP-PlexA1 (10^−7 M). The lower panel is showing the quantification of the p-Akt/Akt ratio in the different conditions. (E) MTP-PlexA1 decreases VEGFR-2 phosphorylation induced by VEGF (100 ng/ml) in HUVEC cells. […]
(§2) in 20 mM sodium acetate (pH 4.5) at a flow rate of 5 μl/ min 10–7 M of MTP-PlexA1 or Vehicle (LDS, 72 µM) during until desired surface densities, measured in response 1 h. Stimulation was done with 100ng/ml Semaphorin 3A units, were reached. […] First antibodies (Rabbit anti-phospho-the elution buffer containing detergent removed non- akt, Rabbit anti-akt, Cell Signaling #4060 and #9272 biotinylated peptides rendering the chip ready for analysis respectively) and mouse anti-tubulin α (Cell Signaling with monomeric biot-MTP-PlexA1. Blank surfaces were #2144) were incubated overnight at 4°C (+ anti-NRP1, used for background corrections. Injections of 30 µl anti-PlexA4 Abcam). […] Images of the immuno-blots cells per well in a 6-well plate and serum starved overnight. were acquired and analyzed thanks to the GENE GNOME Before protein extraction, the cells were treated either with apparatus (Syngene Bio Imaging, UK).

The next experiment concerns p-Akt/Akt. As to the kind of experiment: western blot of Akt phosphorylation in U373MG cells. Format: cell-based, human. The note with it: Sema3A 100 ng/ml + MTP-PlexA1 10^−7 M. The protocol:
as §1, §2

In a further experiment the test system is HMEC cells. As to the kind of experiment: 3D migration assay with HMEC spheroids in plasma clot. Format: cell-based, human. The note with it: 3D plasma clot, MTP-PlexA1 10^−7 M, VEGF 100 ng/ml.
Another experiment relates to PlexA1-NRP1 interactions. As to the kind of experiment: proximity ligation assay on U118MG tumor sections. The class given is in vivo, human cells in mouse. The settings on record: proximity ligation assay on tumor tissue, treated mice; p = 0.0051, Mann Whitney. The protocol:
(§3) To address the biological consequences of MTP-PlexA1-mediated inhibition of PlexA1 we used the U118MG-Luc glioma cell line genetically engineered to express the luciferase reporter gene. […] Cells were then grafted subcutaneously and tumor growth was monitored every 5 days for a total period of 20 days. […] The quantitative analysis of the cumulated luminescent signal acquired all along the protocol confirmed the strong reduction of tumor development translating into a marked 75% reduction of the averaged luminescent signal at the end point (Figure 6C). […] In order to clarify the mechanism by which MTP-PlexA1 is exerting tumor growth inhibition we collected tumors and analyzed them histologically.
(§4) (B) Representative photographs illustrating the kinetic of tumor growth over 20 days in the two experimental groups. […] (D) Waterfall plot of best response representing the percent change in tumor volume of individual treated animals (grey bars, n = 10) compared to the average tumor volume increased determined in the control group (dark bars, n = 10). […] (F) Representative microphotographs and related quantification of PH3 positive cells in tumor slices (G) Representative microphotographs and related quantification of CD31 positive regions in tumor slices (% CD31 per μm² of tumors).

In experiment [1] the test system is PH3 positive cells in U118MG-Luc tumors. As to the kind of experiment: PH3 immunostaining of U118MG-Luc xenograft tumor sections. Format: in vivo, human cells in mouse. The settings on record: 5 sections per tumor, vs control; p = 0.0022, Mann Whitney. The protocol:
as §3, §4

Another experiment deals with U373MG cells. As to the kind of experiment: 3D migration assay, U373MG spheroids in plasma clot. Format: cell-based, human. The note with it: 3D plasma clot, 24 h, VEGF 100 ng/ml, MTP-PlexA1 10–7 M. The protocol: Supplementary Figure S6: The anti-tumor effect of MTP-PlxA1 was verified in U373MG human GBM line. We found […]
Because PlexA1 is involved in cell migration we also performed a 3D migration assay. U373MG cells were grown as cell aggregates (micro tumor-like spheroids) for 24 h in plasma clot with or without VEGF. […]
migration that formed cell chains invading the 3D substrate as previously described (12). Strikingly, VEGF-induced cell migration was abolished when MTP-PlexA1 at 10–7 M was added to the cultures. […]
of PlexA1, this part of the study exemplified the therapeutic potential of MTP-PlexA1 because this peptide was able to block two major mechanisms of tumor progression.
(Stable Disease) and 62.5% PR (Partial Response).
(1 picture or pasted object on this page, not shown here)

For the sequence “TLPAIVGIGGGGGLLLLVIVAVLIAYKRK [MTP-PlexA1, synthetic transmembrane peptide mimicking the TMD of PlexA1]”, the “change of PlexA4 co-immunoprecipitated with PlexA1, Sema3A-induced” value in the experiment with PlexA4-PlexA1 complex (Sema3A 100 ng/ml 30 min) was −35.5%. Besides, the “reduction of PlexA4 co-immunoprecipitated with PlexA1, VEGF” value with PlexA4-PlexA1 complex (VEGF 100 ng/ml 10 min) is on record as 35.4%. Further, the “effect on Sema3A-induced inhibition of Akt phosphorylation” value with p-Akt/Akt is on record as “blocked”. Further, the “VEGFA-induced HMEC cell migration” value with HMEC cells is given as “abolished”. The “change of PlexA1-NRP1 interactions in tumor sections” value in the experiment with PlexA1-NRP1 interactions is reported as −48.5%. Moreover, in experiment [1], the “decrease of PH3 positive proliferative cells in tumors” value is recorded as 37.3%. For the same sequence, the “VEGF-induced U373MG tumor cell migration” value in the experiment on U373MG cells is given as “abolished”.
